The nature of data set [1]: Antioxidant activity assessed as DPPH radical scavenging activity measured after 30 mins. Format: functional. A general note: The DPPH test is a chemical assay of radical scavenging.
Data set [2] in a line: Antioxidant activity assessed as DPPH radical scavenging activity measured after 1 hrs. It counts as functional.
Another data set concerns PC-3. The data set is described as follows: Anticancer activity against human PC-3 cells assessed as cell growth inhibition measured after 72 hrs by MTT assay. Format: functional, cell-based. The note with it: PC-3, 72 h.
A further data set has as its system MCF7. The data set is described as follows: Anticancer activity against human MCF7 cells assessed as cell growth inhibition measured after 72 hrs by MTT assay. Format: functional, cell-based. The note with it: MCF7, 72 h. Background: Tetrazolium assays rely on reduction of a dye to a coloured formazan, in cell work by metabolically active cells.
The subject of the next data set is Rattus norvegicus. The data set is described as follows: Antidiabetic activity against overnight fasted STZ-induced Wistar rat of type 1 diabetes assessed as increase in insulin level at 1 mg/kg, po by ELISA (reference value: 7.7 +/- 1.0 microIU/mL). Format: functional.
Data set [3] in a line: Toxicity in STZ-induced Wistar rat of type 1 diabetes assessed as coronary arterial flow rate at 3 mg/kg, ip administered twice daily measured after 4 weeks (reference value: 12.6 +/- 0.5 mL/min). Format: organism-based. The note with it: in vivo, 672 h.
Data set [4] concerns Mus musculus. As to the kind of experiment: Antidiabetic activity in STZ-induced Swiss albino mouse assessed as insulin level at 5 microM/kg, ip administered twice daily measured after 21 days (reference value: 88.7%). It counts as functional. The note with it: time 21 day, at 5 µmol/kg.
Data set [5] in a line: Induction of insulin-sensitizing activity in insulin-resistant human HepG2 cells assessed as increase in glucose consumption at 60 ng/ml relative to control. It counts as functional, insulin-resistant human HepG2 cell.
Data set [6] concerns Mus musculus. As to the kind of experiment: Antidiabetic activity in STZ-induced Swiss albino mouse assessed as blood glucose level at 5 microM/kg, ip administered twice daily measured after 21 days (reference value: 220 +/- 7.2mg/dl). The note with it: time 21 day. It counts as functional.
The test system of data set [7] is Mus musculus. As to the kind of experiment: Antidiabetic activity in STZ-induced C57BL/6J mouse assessed as increase in insulin sensitivity at 30 mg/kg. It counts as functional.
Data set [8] in a line: Induction of insulin-sensitizing activity in insulin-resistant human HepG2 cells assessed as increase in glucose consumption at 30 ng/ml relative to control. Format: functional, insulin-resistant human HepG2 cell.
Data set [9] deals with Mus musculus. The data set is described as follows: Antidiabetic activity in STZ-induced Swiss albino mouse assessed as inhibition of IL-1beta level at 5 microM/kg, ip administered twice daily measured after 21 days relative to control. It counts as functional. More on the design: scale not given: the % may be the effect or the level left. The note with it: time 21 day, at 5 µmol/kg.

Data set [10] relates to Mus musculus. The data set is described as follows: Antiinflammatory activity in STZ-induced C57BL/6J mouse of non insulin dependent diabetes mellitus assessed as PPAR-alpha level at 30 mg/kg. Format: functional.
The subject of data set [11] is Mus musculus. As to the kind of experiment: Antidiabetic activity in STZ-induced Swiss albino mouse assessed as inhibition of IFN-gamma level at 5 microM/kg, ip administered twice daily measured after 21 days relative to control. It counts as functional. The note with it: time 21 day, at 5 µmol/kg. More on the design: scale not given: the % may be the effect or the level left.

The subject of data set [12] is Mus musculus. The data set is described as follows: Antidiabetic activity in STZ-induced Swiss albino mouse assessed as inhibition of NO level at 5 microM/kg, ip administered twice daily measured after 21 days relative to control. On the set-up: scale not given: the % may be the effect or the level left. The note with it: time 21 day, at 5 µmol/kg. It counts as functional.

In data set [13] the test system is Human immunodeficiency virus. As to the kind of experiment: Antiviral activity against HIV infected in MT4 cells assessed as viral replication. It counts as functional, organism-based. The note with it: Human immunodeficiency virus 1, MT4.

Data on 20 compounds can be found in ChEMBL document CHEMBL5331056 (Eur J Med Chem, 2022).

One may read the IC50 as the point on the concentration scale where inhibition reaches its midpoint.

In the case of `COC(=O)/C=C/c1cc(O)c(O)cc1O`, the half-maximal inhibitory concentration (IC50) in data set [1] came to 53.3 µM.

`O=C(/C=C/c1ccc(O)c(O)c1)O[C@H]1[C@H](O)C[C@](O)(C(=O)O)C[C@H]1OC(=O)/C=C/c1ccc(O)c(O)c1`: the FRS50 in data set [2] came out at 23.8 µM.

Regarding `CCCCCCCCCCOC/C=C/c1cccc(O)c1`, the IC50 in the data set on PC-3 and in the data set on MCF7 was more than 10 µM in each case.

Take `O=C(/C=C/c1ccc(O)c(O)c1)O[C@@H]1[C@H](O)C[C@@](O)(C(=O)O)C[C@H]1OC(=O)/C=C/c1ccc(O)c(O)c1`: in [2], the FRS50 is 19.8 µM.

For `Oc1ccc(/C=C/COCCc2ccccc2)cc1O`, the results for the IC50 with PC-3 and in the data set on MCF7 were 1.2 µM and 8 µM, respectively.

Turning to `Oc1ccc(/C=C/COCCc2ccccc2)cc1`, the IC50 in the data set with PC-3 and with MCF7 was more than 10 µM throughout.

Take `O=C(/C=C/c1ccc(O)c(O)c1)NCCc1ccccc1` [CAFFEIC ACID PHENETHYL AMIDE]: the Activity with Rattus norvegicus was 14.9 uIU/ml; in [3], 11.2 mL/min.

As for `Oc1ccc(/C=C/COCCCCCCc2ccccc2)cc1O`, the 50% inhibitory concentration (IC50) came to 1.4 µM with PC-3 and 2.4 µM with MCF7.

As to `O=C(/C=C/c1ccc(O)c(O)c1)OCCc1ccccc1` [CAFFEIC ACID PHENETHYL ESTER], the Activity in the data set on Mus musculus [4] was determined as 93.8%; in [5] it was 24.3%; in the data set with Mus musculus [6] it was 137 mg/dL; in the data set on Mus musculus [7], 20.8%; in data set [8], 17.1%; in the data set with Mus musculus [9], 43.2%. For the same compound, the Activity with Mus musculus [10] is 38.6%; with Mus musculus [11], 26.3%; with Mus musculus [12], 58.3%.

As for `O=c1c(O)c(-c2ccc(O)c(O)c2)oc2cc(O)cc(O)c12`, in data set [2], the FRS50 is 13.4 µM.

Take `CCCCCCCCCCOC/C=C/c1cc(O)c(O)c(O)c1`: the figures for the IC50 in the data set on PC-3 and in the data set with MCF7 were 0.6 µM and 0.8 µM, respectively.

Take `Oc1ccc(/C=C/COCCCCCCc2ccccc2)cc1`: the IC50 with PC-3 and in the data set on MCF7 was more than 10 µM throughout.

On to `C[C@@]1(C(=O)O)O[C@H]1COC(=O)/C=C/c1ccc(O)c(O)c1`, for which, in data set [2], the FRS50 amounted to 43.8 µM.

As to `COC(=O)/C=C/c1ccc(O)c(O)c1O`, the IC50 in data set [1] came to 18.6 µM.

`CCCCCCCCCCOC/C=C/c1ccc(O)cc1`: the IC50 in the data set on PC-3 and with MCF7 was more than 10 µM in each case.

For `O=C(O)/C=C/c1ccc(O)c(O)c1` [CAFFEIC ACID], in data set [1], the IC50 was found to be 32.2 µM.

As to `CCCCCCCCCCOC/C=C/c1ccc(O)c(O)c1`, the IC50 came out at 0.6 µM with PC-3 and 1.7 µM in the data set with MCF7.

Consider `CC(=O)/C=C/c1ccc(O)c(O)c1O`, for which the IC50 in data set [1] stood at 16.8 µM.

With `O=C(/C=C/c1ccc(O)c(O)c1)O[C@@H]1C[C@](O)(C(=O)O)C[C@@H](OC(=O)/C=C/c2ccc(O)c(O)c2)[C@H]1O`, the FRS50 in [2] worked out at 71.8 µM.

Turning to `O=C1C=C(Cn2cc(COc3ccc(CO)cc3)nn2)C(=O)C=C1O`, in [13], the IC50 turned out to be 4.2 µM.
